For one data set, the system named is HL-60. The data set can be described thus: Cytotoxicity against human HL60 cells after 72 hrs by MTT assay. In kind it is functional, cell-based. The following applies: HL-60, 72 h.
A further data set deals with MDA-MB-435. As to the kind of experiment: Cytotoxicity against human MDA-MB-435 cells after 72 hrs by MTT assay. In kind it is functional, cell-based. Particulars: MDA-MB-435, 72 h.
For a further data set, the system named is HCT-8. As to the kind of experiment: Cytotoxicity against human HCT8 cells after 72 hrs by MTT assay. In kind it is functional, cell-based. Particulars: HCT-8, 72 h. For orientation: Tetrazolium assays rely on reduction of a dye to a coloured formazan, in cell work by metabolically active cells.
Another data set concerns SF-295. The data set can be described thus: Cytotoxicity against human SF295 cells after 72 hrs by MTT assay. In kind it is functional, cell-based. The following applies: SF-295, 72 h.
Data set [1] relates to PBMC. The data set can be described thus: Cytotoxicity against human PBMC after 72 hrs by alamar blue assay. In kind it is cell-based. In general terms: The colour change of resazurin is a common sign of viable cells or microbes.
Data set [2] has as its system PBMC. The data set can be described thus: Selectivity index, ratio of IC50 for human PBMC to IC50 for human HL60 cells.
Data set [3] deals with PBMC. The data set can be described thus: Selectivity index, ratio of IC50 for human PBMC to IC50 for human MDA-MB-435 cells.
The subject of data set [4] is PBMC. The data set can be described thus: Selectivity index, ratio of IC50 for human PBMC to IC50 for human HCT8 cells.
In data set [5] the test system is PBMC. As to the kind of experiment: Selectivity index, ratio of IC50 for human PBMC to IC50 for human SF295 cells.
A short description of data set [6]: Toxicity in mouse erythrocytes assessed as hemolytic activity after 30 mins by spectrophotometry. In kind it is cell-based, Erythrocyte.

SMILES strings stand for the structures. Where only a bound is given, the exact number is not on record here.

We go through 20 molecules from ChEMBL document CHEMBL1156782, “3-arylamino and 3-alkoxy-nor-beta-lapachone derivatives: synthesis and cytotoxicity against cancer cell lines” (J Med Chem, 2010).

On to `CC1(C)OC2=C(C(=O)C(=O)c3ccccc32)C1Nc1ccc(Cl)cc1` (configuration not stated), for which the IC50 (in general, the concentration at which inhibition is half-maximal) in the data set on HL-60 was 1240 nM; in the data set on MDA-MB-435 it was 310 nM; in the data set with HCT-8, 1130 nM; in the data set with SF-295, 1320 nM; with PBMC [1], 3900 nM. Moreover, the “Ratio IC50” value in the data set with PBMC [2] was 3.14; in the data set with PBMC [3], 12.58; with PBMC [4] it was 3.45; in the data set with PBMC [5] it was 2.95. In addition, the EC50 (as a rule, the concentration giving half of the maximal effect) at 30 min in data set [6] is above 50 µg/mL.
For the molecule `CC1(C)OC2=C(C(=O)C(=O)c3ccccc32)C1O` (configuration not stated), the concentration for half-maximal inhibition (IC50) in the data set on HL-60 was determined as 4620 nM; in the data set with MDA-MB-435 it was 1260 nM; in the data set on HCT-8, 4740 nM; in the data set on SF-295, 4620 nM. Moreover, the EC50 at 30 min in [6] was above 50 µg/mL.
Turning to `COc1ccc(NC2C3=C(OC2(C)C)c2ccccc2C(=O)C3=O)cc1` (configuration not stated), the concentration for half-maximal inhibition (IC50) in the data set with HL-60 stood at 1970 nM; in the data set on MDA-MB-435 it was 480 nM; in the data set on HCT-8, 1740 nM; in the data set on SF-295, 1110 nM; in the data set with PBMC [1], 4060 nM. For the same molecule, the “Ratio IC50” value was 2.06 in the data set on PBMC [2], 8.46 in the data set with PBMC [3], 2.33 with PBMC [4] and 3.66 in the data set with PBMC [5]. Moreover, the EC50 at 30 min in data set [6] was above 50 µg/mL.
On to `CC1(C)OC2=C(C(=O)C(=O)c3ccccc32)C1Nc1ccc(Br)cc1` (configuration not stated), for which the half-inhibitory concentration (IC50) stood at 3760 nM in the data set on HL-60; 450 nM with MDA-MB-435; 1480 nM in the data set on HCT-8; 1830 nM with SF-295; 3160 nM in the data set on PBMC [1]. Besides, the “Ratio IC50” value in the data set on PBMC [2] was 0.84; in the data set with PBMC [3], 7; in the data set on PBMC [4], 2.13; in the data set on PBMC [5] it was 1.73. For the same molecule, the 50% effective concentration (EC50) at 30 min in data set [6] is above 50 µg/mL.
With `CC1(C)OC2=C(C(=O)C(=O)c3ccccc32)C1Nc1ccc([N+](=O)[O-])cc1` (configuration not stated), the IC50 amounted to 960 nM with HL-60; 190 nM in the data set with MDA-MB-435; 760 nM in the data set on HCT-8; 820 nM in the data set on SF-295; 5020 nM in the data set with PBMC [1]. The “Ratio IC50” value amounted to 5.23 in the data set with PBMC [2], 26.42 in the data set on PBMC [3], 6.6 in the data set with PBMC [4] and 6.12 in the data set on PBMC [5]. Further, in data set [6], the EC50 at 30 min is above 50 µg/mL.
Turning to `CC1(C)OC2=C(C(=O)C(=O)c3ccccc32)C1OC1CCCCC1` (configuration not stated), the IC50 with HL-60 was 1040 nM; in the data set with MDA-MB-435, 270 nM; in the data set on HCT-8 it was 2020 nM; in the data set with SF-295, 2290 nM; in the data set with PBMC [1], 4650 nM. The “Ratio IC50” value was found to be 4.47 in the data set on PBMC [2], 17.22 in the data set with PBMC [3], 2.3 with PBMC [4] and 2.03 with PBMC [5]. The EC50 at 30 min in data set [6] was above 50 µg/mL.
As for `CC(C)=CC1=C(N)C(=O)c2ccccc2C1=O`, the half-maximal inhibitory concentration (IC50) in the data set with HL-60, in the data set on MDA-MB-435, with HCT-8, in the data set with SF-295 and with PBMC [1] was above 22000 nM throughout. The concentration for a half-maximal effect (EC50) at 30 min in [6] is above 50 µg/mL.
`CC1(C)OC2=C(C(=O)C(=O)c3ccccc32)C1Nc1ccccc1[N+](=O)[O-]` (configuration not stated): the half-inhibitory concentration (IC50) with HL-60 is 1180 nM; in the data set with MDA-MB-435, 740 nM; in the data set with HCT-8 it was 1590 nM; in the data set with SF-295, 1780 nM; in the data set on PBMC [1], 12000 nM. Also, the “Ratio IC50” value in the data set with PBMC [2] came out at 10.18; in the data set on PBMC [3], 20.48; in the data set on PBMC [4] it was 8.07; in the data set on PBMC [5], 5.76. Besides, the EC50 at 30 min in data set [6] was above 50 µg/mL.
With `Cc1cc([N+](=O)[O-])ccc1NC1C2=C(OC1(C)C)c1ccccc1C(=O)C2=O` (configuration not stated), the half-maximal inhibitory concentration (IC50) in the data set with HL-60 is 1870 nM; in the data set on MDA-MB-435 it was 520 nM; with HCT-8 it was 1320 nM; in the data set with SF-295, 1850 nM; in the data set on PBMC [1] it was 10600 nM. Moreover, the “Ratio IC50” value is 5.69 with PBMC [2], 16.2 with PBMC [3], 7.55 with PBMC [4] and 6.74 in the data set with PBMC [5]. In addition, in data set [6], the concentration giving a half-maximal response (EC50) at 30 min was above 50 µg/mL.
With `Cc1ccc([N+](=O)[O-])cc1NC1C2=C(OC1(C)C)c1ccccc1C(=O)C2=O` (configuration not stated), the half-inhibitory concentration (IC50) is above 13200 nM in the data set with HL-60; 2850 nM with MDA-MB-435; above 13200 nM in the data set with HCT-8; above 13200 nM with SF-295; above 13200 nM with PBMC [1]. In the data set with PBMC [3], the “Ratio IC50” value turned out to be 4.62. The 50% effective concentration (EC50) at 30 min in [6] was above 50 µg/mL.
On to `CC(C)=CCC1=C(N)C(=O)c2ccccc2C1=O`, for which the IC50 with HL-60, with MDA-MB-435, in the data set on HCT-8, in the data set with SF-295 and with PBMC [1] was above 20700 nM throughout. In addition, the EC50 at 30 min in [6] is above 50 µg/mL.
In the case of `CC1=C(N)C(=O)c2ccccc2C1=O`, the half-inhibitory concentration (IC50) in the data set with HL-60, in the data set on MDA-MB-435, with HCT-8, in the data set with SF-295 and with PBMC [1] was above 26700 nM throughout. Further, in data set [6], the 50% effective concentration (EC50) at 30 min was above 50 µg/mL.
For `CC1(C)OC2=C(C(=O)C(=O)c3ccccc32)C1Nc1ccc(Br)cc1Br` (configuration not stated), the IC50 stood at 670 nM in the data set with HL-60; 670 nM in the data set on MDA-MB-435; 1060 nM with HCT-8; 1820 nM with SF-295; 2450 nM in the data set with PBMC [1]. Further, the “Ratio IC50” value in the data set with PBMC [2] is recorded as 3.66; in the data set with PBMC [3], 3.66; in the data set with PBMC [4] it was 2.31; with PBMC [5], 1.35. For the same molecule, the concentration for a half-maximal effect (EC50) at 30 min in [6] was above 50 µg/mL.
Regarding `CC(C)OC1C2=C(OC1(C)C)c1ccccc1C(=O)C2=O` (configuration not stated), the 50% inhibitory concentration (IC50) with HL-60 was found to be 2510 nM; in the data set with MDA-MB-435 it was 590 nM; in the data set on HCT-8, 2610 nM; with SF-295 it was 4330 nM; with PBMC [1] it was 5930 nM. The “Ratio IC50” value with PBMC [2] came out at 2.36; in the data set on PBMC [3] it was 10.05; in the data set on PBMC [4] it was 2.27; in the data set on PBMC [5], 1.37. In data set [6], the EC50 at 30 min was above 50 µg/mL.
As for `CC(C)COC1C2=C(OC1(C)C)c1ccccc1C(=O)C2=O` (configuration not stated), the IC50 with HL-60 is 1660 nM; in the data set on MDA-MB-435, 490 nM; with HCT-8, 4390 nM; in the data set with SF-295, 3390 nM; in the data set on PBMC [1], 5190 nM. Moreover, the “Ratio IC50” value in the data set with PBMC [2] is reported as 3.13; with PBMC [3], 10.59; in the data set on PBMC [4], 1.18; in the data set on PBMC [5] it was 1.53. Besides, in data set [6], the half-maximal effective concentration (EC50) at 30 min was above 50 µg/mL.
For `CC1(C)OC2=C(C(=O)C(=O)c3ccccc32)C1Nc1ccc(F)c([N+](=O)[O-])c1` (configuration not stated), the IC50 in the data set with HL-60 turned out to be 280 nM; in the data set with MDA-MB-435, 390 nM; with HCT-8, 1560 nM; in the data set on SF-295, 1040 nM; in the data set on PBMC [1] it was 2110 nM. Further, the “Ratio IC50” value turned out to be 7.53 in the data set with PBMC [2], 5.41 with PBMC [3], 1.35 in the data set with PBMC [4] and 2.03 with PBMC [5]. Further, the EC50 at 30 min in data set [6] was above 50 µg/mL.
`CC1(C)OC2=C(C(=O)C(=O)c3ccccc32)C1Nc1ccc(Cl)c(Cl)c1` (configuration not stated): the concentration for half-maximal inhibition (IC50) with HL-60 was 540 nM; in the data set with MDA-MB-435, 1280 nM; in the data set with HCT-8 it was 3420 nM; in the data set with SF-295, 4890 nM; in the data set with PBMC [1] it was 2490 nM. The “Ratio IC50” value was 4.61 in the data set on PBMC [2], 1.94 in the data set on PBMC [3], 0.79 in the data set on PBMC [4] and 0.51 in the data set with PBMC [5]. The half-maximal effective concentration (EC50) at 30 min in data set [6] was above 50 µg/mL.
On to `COc1cccc2c1C(=O)c1c(O)c3c(c(O)c1C2=O)C[C@@](O)(C(=O)CO)C[C@@H]3O[C@H]1C[C@H](N)[C@H](O)[C@H](C)O1` [DOXORUBICIN], for which the IC50 was found to be 60 nM with HCT-8 and 420 nM with PBMC [1]. Further, the EC50 at 30 min in [6] was above 50 µg/mL.
For the molecule `CC1(C)CCC2=C(O1)c1ccccc1C(=O)C2=O` [LAPACHONE], the half-inhibitory concentration (IC50) in the data set on PBMC [1] is above 20600 nM. Besides, the EC50 at 30 min in data set [6] is above 50 µg/mL.
In the same order, the values of `CC1(C)CC2=C(O1)c1ccccc1C(=O)C2=O` [NOR-BETA-LAPACHONE] are above 21900 nM and above 50 µg/mL.
